From patent US9452154B2, “Methods for treating HCV” (Gilead Sciences, Inc., priority 2010, dated 2016)
Several values for one entry are separate records, joined by “and”; a condition that tells them apart may be missing. Equal entries are not always repeated. Where two headings read alike, the source gives them in different places. Marks after values point to notes of the source that are not given here.

Experiments:
[1] = test system: NS3 GT1a mutant replicons; format: cell-based, HCV
Procedure: (§1) GT1b and GT1a replicons carrying Renilla Luciferase reporter were used to generate the mutant replicons. The mutations were introduced into the replicon construct by site-directed mutagenesis and confirmed by sequencing. Mutant replicon RNAs were generated from DNA by in vitro transcription and transfected into Huh-7 Lunet or C1 cells
(§2) Compounds were serially diluted 1:3 in 100% DMSO (Sigma). These serial dilutions were added to the cells at a 1:200 dilution to achieve a final concentration of 0.5% DMSO in a total volume of 200 μL. […] EC50 values were calculated using Prism.
(§3) For comparison, a fold change of 0-3 is considered “sensitive”, a fold change of 3-10 is considered “low”, a fold change of 10-50 is considered “medium” and a fold change of greater than […] is considered “high”.

[2] = test system: NS3 GT1b mutant replicons; format: cell-based, HCV
Procedure: as §1, §2, §3

[3] = test system: Huh-7 cells carrying a HCV genotype 1a replicon; assay: Biological Example 3: cytotoxicity (calcein AM), CC50; format: cell-based; settings: HCV genotype 1a replicon cells; IFN-α in Units (U) per milliliter (mL)
HCV genotype 1a replicon [4] = assay: Biological Example 3: HCV genotype 1a replicon assay, EC50; format: cell-based; settings: IFN-α in Units (U) per milliliter (mL)
HCV 1b replicon system = assay: Biological Example 5: antiviral combination studies with Compound 6 (MacSynergy II); format: cell-based; settings: in combination with Compound 6
HCV genotype 1a replicon [5] = assay: Biological Example 3: antiviral combination studies with Compound 4 (MacSynergy II); settings: in combination with Compound 4
[6] = test system: GT1b and GT1a mutant replicons; assay: Biological Example 8: summary of cross resistance of mutant replicons; format: cell-based, HCV
Procedure: as §1, §2, §3

[7] = test system: Huh-7 cells carrying a HCV genotype 1a replicon; assay: Biological Example 3: cytotoxicity in combination studies (MacSynergy II); settings: in combination with Compound 4

Q: For IFN-α [reference compound], which “fold change in EC50 vs wild-type GT1a” value ([1]; mutant A156T) is on record?
A: 0.1 fold

Q: And the “fold change in EC50 vs wild-type GT1a” value ([1]; mutant D168A)?
A: 1.4 fold

Q: What about the “fold change in EC50 vs wild-type GT1a” value ([1]; mutant D168E) of the same substance?
A: 2.1 fold

Q: What about the “fold change in EC50 vs wild-type GT1a” value ([1]; mutant D168G) of the same substance?
A: 0.8 fold

Q: And the “fold change in EC50 vs wild-type GT1a” value ([1]; mutant D168H)?
A: 0.9 fold

Q: And the “fold change in EC50 vs wild-type GT1a” value ([1]; mutant D168N)?
A: 1.1 fold

Q: And the “fold change in EC50 vs wild-type GT1a” value ([1]; mutant D168V)?
A: 1.0 fold

Q: What about the “fold change in EC50 vs wild-type GT1a” value ([1]; mutant D168Y) of the same substance?
A: 1.2 fold

Q: What about the “fold change in EC50 vs wild-type GT1a” value ([1]; mutant R155I) of the same substance?
A: 0.6 fold

Q: And the “fold change in EC50 vs wild-type GT1a” value ([1]; mutant R155K)?
A: 0.7 fold

Q: And the “fold change in EC50 vs wild-type GT1a” value ([1]; mutant R155K + L31M)?
A: 0.2 fold

Q: And the “fold change in EC50 vs wild-type GT1a” value ([1]; mutant R155K + M28T)?
A: 1.1 fold

Q: And the “fold change in EC50 vs wild-type GT1a” value ([1]; mutant R155K + Q30H + Y448H)?
A: 1.9 fold

Q: And the “fold change in EC50 vs wild-type GT1a” value ([1]; mutant R155K + Q30R)?
A: 1.6 fold

Q: What about the “fold change in EC50 vs wild-type GT1a” value ([1]; mutant R155K + Y93H) of the same substance?
A: 0.3 fold

Q: And the “fold change in EC50 vs wild-type GT1a” value ([1]; mutant R155K + Y488H (second line, r26))?
A: 0.7 fold

Q: What about the “fold change in EC50 vs wild-type GT1a” value ([1]; mutant R155M) of the same substance?
A: 0.3 fold

Q: What about the “fold change in EC50 vs wild-type GT1a” value ([1]; mutant R155S) of the same substance?
A: 0.1 fold

Q: What about the “fold change in EC50 vs wild-type GT1a” value ([1]; mutant R155T) of the same substance?
A: 0.2 fold

Q: And the “fold change in EC50 vs wild-type GT1a” value ([1]; mutant R155W)?
A: 0.6 fold

Q: And the “fold change in EC50 vs wild-type GT1a” value ([1]; mutant R155k + Q30H)?
A: 1.4 fold

Q: And the “fold change in EC50 vs wild-type GT1b” value ([2]; mutant A156D)?
A: 0.6 fold

Q: What about the “fold change in EC50 vs wild-type GT1b” value ([2]; mutant A156G) of the same substance?
A: 1.1 fold

Q: And the “fold change in EC50 vs wild-type GT1b” value ([2]; mutant A156T)?
A: 0.8 fold

Q: What about the “fold change in EC50 vs wild-type GT1b” value ([2]; mutant A156V) of the same substance?
A: 0.9 fold

Q: And the “fold change in EC50 vs wild-type GT1b” value ([2]; mutant D168A)?
A: 0.9 fold

Q: And the “fold change in EC50 vs wild-type GT1b” value ([2]; mutant D168E)?
A: 0.9 fold

Q: What about the “fold change in EC50 vs wild-type GT1b” value ([2]; mutant D168E + L31V + Y448H) of the same substance?
A: 0.7 fold

Q: And the “fold change in EC50 vs wild-type GT1b” value ([2]; mutant D168E + Y93H + Y448H)?
A: 0.4 fold

Q: And the “fold change in EC50 vs wild-type GT1b” value ([2]; mutant D168G)?
A: 0.6 fold

Q: What about the “fold change in EC50 vs wild-type GT1b” value ([2]; mutant D168H) of the same substance?
A: 0.8 fold

Q: What about the “fold change in EC50 vs wild-type GT1b” value ([2]; mutant D168N) of the same substance?
A: 1.0 fold

Q: What about the “fold change in EC50 vs wild-type GT1b” value ([2]; mutant D168T) of the same substance?
A: 0.9 fold

Q: What about the “fold change in EC50 vs wild-type GT1b” value ([2]; mutant D168V) of the same substance?
A: 1.5 fold

Q: And the “fold change in EC50 vs wild-type GT1b” value ([2]; mutant D168V + L31V + Y448H)?
A: 0.5 fold

Q: What about the “fold change in EC50 vs wild-type GT1b” value ([2]; mutant D168V + Y93H + Y448H) of the same substance?
A: 0.6 fold

Q: And the “fold change in EC50 vs wild-type GT1b” value ([2]; mutant D168Y)?
A: 1.3 fold

Q: And the “fold change in EC50 vs wild-type GT1b” value ([2]; mutant L31V + D168E)?
A: 1.3 fold

Q: What about the “fold change in EC50 vs wild-type GT1b” value ([2]; mutant L31V + D168V) of the same substance?
A: 1.2 fold

Q: What about the “fold change in EC50 vs wild-type GT1b” value ([2]; mutant R155C) of the same substance?
A: 0.7 fold

Q: And the “fold change in EC50 vs wild-type GT1b” value ([2]; mutant R155G)?
A: 1.1 fold

Q: What about the “fold change in EC50 vs wild-type GT1b” value ([2]; mutant R155K) of the same substance?
A: 1.5 fold

Q: And the “fold change in EC50 vs wild-type GT1b” value ([2]; mutant R155L)?
A: 1.1 fold

Q: What about the “fold change in EC50 vs wild-type GT1b” value ([2]; mutant R155Q) of the same substance?
A: 0.6 fold

Q: And the “fold change in EC50 vs wild-type GT1b” value ([2]; mutant R155W)?
A: 0.5 fold

Q: And the “fold change in EC50 vs wild-type GT1b” value ([2]; mutant Y93H + D168E)?
A: 1.1 fold

Q: What about the “fold change in EC50 vs wild-type GT1b” value ([2]; mutant Y93H + D168V) of the same substance?
A: 0.7 fold

Q: And the CC50 [3]?
A: >50^b U/mL

Q: What about the EC50 (HCV genotype 1a replicon [4]) of the same substance?
A: 1.4 ± 0.3^b U/mL

Q: And the “Antagonism Volume” value (HCV 1b replicon system)?
A: 0.0 ± 0.0 nM^2

Q: And the Interaction (HCV 1b replicon system)?
A: Minor Synergy

Q: What about the “Synergy Volume” value (HCV 1b replicon system) of the same substance?
A: 32 nM^2 and 32 ± 1.4 nM^2

Q: And the “Antagonism Volume” value (HCV genotype 1a replicon [5])?
A: 0 ± 0 nM^2%

Q: What about the Interaction (HCV genotype 1a replicon [5]) of the same substance?
A: Additivity (Additivity: ≦25 and >−25 nM^2%)

Q: What about the “Synergy Volume” value (HCV genotype 1a replicon [5]) of the same substance?
A: 12 ± 6 nM^2%

Q: What about the susceptibility of mutants ([6]; all single NS3 PI-resistant mutants) of the same substance?
A: full susceptibility

Q: What about the susceptibility of mutants ([6]; triple class mutants that confer resistance to PI, NS5A and Compound 1) of the same substance?
A: susceptible

Q: And the “Antagonism Volume (cytotoxicity)” value [7]?
A: −7 ± 13 nM^2%

Q: What about the “Interaction (cytotoxicity)” value [7] of the same substance?
A: Additivity (Additivity: ≦25 and >−25 nM^2%)

Q: What about the “Synergy Volume (cytotoxicity)” value [7] of the same substance?
A: 8 ± 12 nM^2%
